Laboratory results as given in ChEMBL document CHEMBL3797190, “Development of 3,5-Dinitrobenzylsulfanyl-1,3,4-oxadiazoles and Thiadiazoles as Selective Antitubercular Agents Active Against Replicating and Nonreplicating Mycobacterium tuberculosis” (J Med Chem, 2016).
≈ marks a conversion by molar mass, not a printed value. Calls of active or inactive are those of the source. No cut-off for these calls is given here.

How the values were obtained:
[1] = Intrinsic clearance in human liver microsomes assessed per mg of protein at 3 uM preincubated for 5 mins followed by NADPH addition by HPLC analysis; format: ADME; settings: read-out: CLH
Klebsiella pneumoniae [2] = assay: Antibacterial activity against Klebsiella pneumoniae D 11750/08 after 24 to 48 hrs by broth microdilution method; format: functional
Mycobacterium kansasii [3] = assay: Antimycobacterial activity against Mycobacterium kansasii CNCTC My 6509/96 after 21 days by microdilution method; format: functional; settings: CNCTC My 6509/96, 504 h
Mycobacterium kansasii [4] = assay: Antimycobacterial activity against Mycobacterium kansasii CNCTC My 6509/96 after 14 days by microdilution method; format: functional; settings: CNCTC My 6509/96, 336 h
[5] = Cytotoxicity against human HeLa cells assessed as cell viability at 20 uM after 48 hrs by MTS assay; format: cell-based; settings: read-out: Activity
Salmonella typhimurium [6] = assay: Mutagenic activity in Salmonella typhimurium TA100 assessed as reverse mutation at 30 uM by Ames test; format: toxicity, organism-based; settings: salmonella enterica subsp. enterica serovar typhimurium
Mycobacterium avium [7] = assay: Antimycobacterial activity against Mycobacterium avium CNCTC My 330/88 after 21 days by microdilution method; format: functional; settings: CNCTC My 330/88, 504 h
Candida albicans = assay: Antifungal activity against Candida albicans ATCC 44859 after 24 to 48 hrs by broth microdilution method; format: functional
[8] = Cytotoxicity against human HepG2 cells assessed as cell viability at 50 uM after 48 hrs by MTS assay; format: cell-based; settings: read-out: Activity
Mycobacterium kansasii [9] = assay: Antimycobacterial activity against Mycobacterium kansasii CNCTC My 235/80 after 7 days by microdilution method; format: functional; settings: CNCTC My 235/80, 168 h
[10] = Cytotoxicity against primary human hepatocytes assessed as cell viability at 20 uM after 48 hrs by MTS assay; format: cell-based, Hepatocyte; settings: read-out: Activity
[11] = system: Mycobacterium tuberculosis; assay: Antimycobacterial activity against non-replicating streptomycin-starved Mycobacterium tuberculosis SS18b-Lux measured at 5 mins to 6 days by luciferase assay; format: functional, organism-based
[12] = Cytotoxicity against MDCK2-MDR1 cells assessed as cell viability at 20 uM after 24 hrs by MTS assay; format: ADME, cell-based, Canis lupus familiaris, MDCK-II; settings: dog, read-out: Activity
[13] = Aqueous solubility of compound in water with 0.01 to 1% DMSO at 2 to 200 uM by HPLC analysis; format: physicochemical
Mycobacterium kansasii [14] = assay: Antimycobacterial activity against Mycobacterium kansasii CNCTC My 235/80 after 21 days by microdilution method; format: functional; settings: CNCTC My 235/80, 504 h
[15] = Cytotoxicity against human HeLa cells assessed as cell viability at 20 uM after 24 hrs by MTS assay; format: cell-based; settings: read-out: Activity
Escherichia coli = assay: Antibacterial activity against Escherichia coli ATCC 8739 after 24 to 48 hrs by broth microdilution method; format: functional
[16] = system: Mycobacterium tuberculosis; assay: Inhibition of RNA biosynthesis in Mycobacterium tuberculosis H37Ra assessed as reduction of [14C]-uracil incorporation at 1 ug/ml preincubated for 1 hr followed by radiolabeling with [14C]-uracil for 24 hrs by scintillation spectrometry; format: functional
[17] = Cytotoxicity against human HuH7 cells assessed as cell viability at 20 uM after 24 hrs by MTS assay; format: cell-based, Huh-7; settings: read-out: Activity
Klebsiella pneumoniae [18] = assay: Antibacterial activity against ESBL producing Klebsiella pneumoniae J 14368/08 after 24 to 48 hrs by broth microdilution method; format: functional
[19] = system: Trichophyton mentagrophytes; assay: Antifungal activity against Trichophyton mentagrophytes 445 after 72 to 120 hrs by broth microdilution method; format: functional
Nakaseomyces glabratus = assay: Antifungal activity against Candida glabrata 20/I after 24 to 48 hrs by broth microdilution method; format: functional
Mycobacterium avium [20] = assay: Antimycobacterial activity against Mycobacterium avium CNCTC My 330/88 after 14 days by microdilution method; format: functional; settings: CNCTC My 330/88, 336 h
Mycobacterium kansasii [21] = assay: Antimycobacterial activity against Mycobacterium kansasii CNCTC My 235/80 after 14 days by microdilution method; format: functional; settings: CNCTC My 235/80, 336 h
Lichtheimia corymbifera = assay: Antifungal activity against Absidia corymbifera 272 after 24 to 48 hrs by broth microdilution method; format: functional
Hepatocyte = assay: Cytotoxicity against primary human hepatocytes assessed as cell viability after 48 hrs by MTS assay; format: cell-based
[22] = system: Mycobacterium tuberculosis; assay: Antimycobacterial activity against non-replicating streptomycin-starved Mycobacterium tuberculosis SS18b-Lux by resazurin reduction microplate assay; format: functional, organism-based
[23] = biological target: Decaprenylphosphoryl-beta-D-ribose oxidase (Mycobacterium smegmatis (strain ATCC 700084 / mc(2)155)) (UniProt A0R607); assay: Inhibition of DprE1 in mixture of Mycobacterium smegmatis MC2 155 membrane and cell envelope fractions assessed as incorporation of P[14C]RPP into [14C]-decaprenylphosphoryl arabinose up to 0.6 mM incubated for 1 hr by TLC/autoradiographic method; settings: Mycolicibacterium smegmatis MC2 155
[24] = Cytotoxicity against MDCK2-MDR1 cells assessed as cell viability at 20 uM after 48 hrs by MTS assay; format: ADME, cell-based, Canis lupus familiaris, MDCK-II; settings: dog, read-out: Activity
[25] = system: Mycobacterium tuberculosis; assay: Antimycobacterial activity against Mycobacterium tuberculosis CNCTC My 331/88 using 1 month stored compound at room temperature in DMSO after 14 to 21 days by microdilution method; format: functional, organism-based
[26] = system: Mycobacterium tuberculosis H37Ra; assay: Inhibition of DprE1 in Mycobacterium tuberculosis H37Ra assessed as accumulation of trehalose dimycolate at 0.5 ug/ml preincubated for 24 hrs followed by radiolabeling with [14C]-acetate for 24 hrs by TLC/autoradiographic method
HeLa [27] = assay: Cytotoxicity against human HeLa cells assessed as cell viability after 24 hrs by MTS assay; format: cell-based
Trichosporon asahii = assay: Antifungal activity against Trichosporon asahii 1188 after 24 to 48 hrs by broth microdilution method; format: functional
[28] = system: Mycobacterium tuberculosis H37Ra; assay: Inhibition of DprE1 in Mycobacterium tuberculosis H37Ra assessed as accumulation of trehalose dimycolate at 0.2 ug/ml preincubated for 24 hrs followed by radiolabeling with [14C]-acetate for 24 hrs by TLC/autoradiographic method
Salmonella typhimurium [29] = assay: Mutagenic activity in Salmonella typhimurium TA98 assessed as reverse mutation at 30 uM by Ames test; format: toxicity, organism-based; settings: salmonella enterica subsp. enterica serovar typhimurium
Aspergillus fumigatus = assay: Antifungal activity against Aspergillus fumigatus 231 after 24 to 48 hrs by broth microdilution method; format: functional
[30] = system: Staphylococcus epidermidis; assay: Antibacterial activity against Staphylococcus epidermidis H 6966/08 after 24 to 48 hrs by broth microdilution method; format: functional
HeLa [31] = assay: Cytotoxicity against human HeLa cells assessed as cell viability after 48 hrs by MTS assay; format: cell-based
Staphylococcus aureus = assay: Antibacterial activity against Staphylococcus aureus ATCC 6538 after 24 to 48 hrs by broth microdilution method; format: functional
Mycobacterium kansasii [32] = assay: Antimycobacterial activity against Mycobacterium kansasii CNCTC My 6509/96 after 7 days by microdilution method; format: functional; settings: CNCTC My 6509/96, 168 h
[33] = system: Mycobacterium tuberculosis; assay: Inhibition of proteosynthesis in Mycobacterium tuberculosis H37Ra assessed as reduction of [14C]-methionine incorporation at 1 ug/ml preincubated for 1 hr followed by radiolabeling with [14C]-methionine for 24 hrs by scintillation spectrometry; format: functional
[34] = Chemical stability of compound in DMSO at 100 uM after 1 month by HPLC analysis; format: physicochemical; settings: 730.5 h

Chain of Decaprenylphosphoryl-beta-D-ribose oxidase (Mycobacterium smegmatis (strain ATCC 700084 / mc(2)155)) (A0R607 whole entry): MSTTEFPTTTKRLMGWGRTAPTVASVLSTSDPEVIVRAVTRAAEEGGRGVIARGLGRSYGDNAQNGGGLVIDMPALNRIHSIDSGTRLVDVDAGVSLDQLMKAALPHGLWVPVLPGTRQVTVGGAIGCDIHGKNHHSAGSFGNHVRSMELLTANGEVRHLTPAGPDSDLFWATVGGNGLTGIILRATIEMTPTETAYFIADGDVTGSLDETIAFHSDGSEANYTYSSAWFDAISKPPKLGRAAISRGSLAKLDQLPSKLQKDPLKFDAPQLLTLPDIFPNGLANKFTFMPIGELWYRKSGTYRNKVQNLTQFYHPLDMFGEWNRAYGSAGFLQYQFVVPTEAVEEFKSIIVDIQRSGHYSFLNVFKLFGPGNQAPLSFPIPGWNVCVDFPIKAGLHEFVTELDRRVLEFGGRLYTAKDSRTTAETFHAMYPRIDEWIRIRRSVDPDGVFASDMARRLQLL

Cc1ccc(-c2nnc(SCc3cc([N+](=O)[O-])cc([N+](=O)[O-])c3)o2)cc1
microsomal CLint at 3 µM [1]: 86 µL/min/mg
MIC95 (Klebsiella pneumoniae [2]): > 125 µM
MIC99 (Mycobacterium kansasii [3]): 0.125 µM (≈ 0.0465 µg/mL)
MIC99 (Mycobacterium kansasii [4]): 0.06 µM (≈ 0.0223 µg/mL)
viability at 48 h, 20 µM [5]: 118%
Activity (Salmonella typhimurium [6]): Non-toxic
MIC99 (Mycobacterium avium [7]): 16 µM (≈ 5.96 µg/mL)
MIC80 (Candida albicans): > 125 µM
viability at 48 h, 50 µM [8]: 95.5%
MIC99 (Mycobacterium kansasii [9]): 0.06 µM (≈ 0.0223 µg/mL)
viability at 48 h, 20 µM [10]: 95.1%
Activity [11]: Dose-dependent effect
viability at 24 h, 20 µM [12]: 98%
solubility kinetic [13]: 0.5 µM (≈ 0.186 µg/mL)
MIC99 (Mycobacterium kansasii [14]): 0.06 µM (≈ 0.0223 µg/mL)
viability at 24 h, 20 µM [15]: 87.2%
MIC95 (Escherichia coli): > 125 µM
inhibition at 1 µg/mL [16]: 50%
viability at 24 h, 20 µM [17]: 101%
MIC95 (Klebsiella pneumoniae [18]): > 125 µM
MIC50 [19]: > 125 µM
MIC80 (Nakaseomyces glabratus): > 125 µM
MIC99 (Mycobacterium avium [20]): 8 µM (≈ 2.98 µg/mL)
MIC99 (Mycobacterium kansasii [21]): 0.06 µM (≈ 0.0223 µg/mL)
MIC50 (Lichtheimia corymbifera): > 125 µM
IC50 (Hepatocyte): > 20 µM
Activity [22]: Dose-dependent effect
inhibition [23]: inactive
viability at 48 h, 20 µM [24]: 48.5%
Activity [25]: Active
inhibition [26]: inactive
IC50 (HeLa [27]): > 20 µM
MIC80 (Trichosporon asahii): > 125 µM
inhibition [28]: inactive
Activity (Salmonella typhimurium [29]): Non-toxic
MIC50 (Aspergillus fumigatus): > 125 µM
MIC95 [30]: > 125 µM
IC50 (HeLa [31]): > 20 µM
MIC95 (Staphylococcus aureus): > 125 µM
MIC99 (Mycobacterium kansasii [32]): 0.06 µM (≈ 0.0223 µg/mL)
inhibition at 1 µg/mL [33]: 37%
Stability [34]: Stable

O=[N+]([O-])c1cc(CSc2nnc(-c3ccc(Cl)cc3)s2)cc([N+](=O)[O-])c1
microsomal CLint at 3 µM [1]: 29 µL/min/mg
MIC95 (Klebsiella pneumoniae [2]): > 125 µM
MIC99 (Mycobacterium kansasii [3]): 0.5 µM (≈ 0.204 µg/mL)
MIC99 (Mycobacterium kansasii [4]): 0.25 µM (≈ 0.102 µg/mL)
viability at 48 h, 20 µM [5]: 108%
Activity (Salmonella typhimurium [6]): Non-toxic
MIC99 (Mycobacterium avium [7]): 16 µM (≈ 6.54 µg/mL)
MIC80 (Candida albicans): > 125 µM
viability at 48 h, 50 µM [8]: 98.5%
MIC99 (Mycobacterium kansasii [9]): 0.125 µM (≈ 0.0511 µg/mL)
viability at 48 h, 20 µM [10]: 102%
Activity [11]: Dose-dependent effect
viability at 24 h, 20 µM [12]: 102%
solubility kinetic [13]: 0.54 µM (≈ 0.221 µg/mL)
MIC99 (Mycobacterium kansasii [14]): 0.5 µM (≈ 0.204 µg/mL)
viability at 24 h, 20 µM [15]: 92.8%
MIC95 (Escherichia coli): > 125 µM
inhibition at 1 µg/mL [16]: 13%
viability at 24 h, 20 µM [17]: 94%
MIC95 (Klebsiella pneumoniae [18]): > 125 µM
MIC50 [19]: > 125 µM
MIC80 (Nakaseomyces glabratus): > 125 µM
MIC99 (Mycobacterium avium [20]): 8 µM (≈ 3.27 µg/mL)
MIC99 (Mycobacterium kansasii [21]): 0.5 µM (≈ 0.204 µg/mL)
MIC50 (Lichtheimia corymbifera): > 125 µM
IC50 (Hepatocyte): > 20 µM
Activity [22]: Dose-dependent effect
inhibition [23]: inactive
viability at 48 h, 20 µM [24]: 91.4%
Activity [25]: Active
inhibition [26]: inactive
IC50 (HeLa [27]): > 20 µM
MIC80 (Trichosporon asahii): > 125 µM
inhibition [28]: inactive
Activity (Salmonella typhimurium [29]): Non-toxic
MIC50 (Aspergillus fumigatus): > 125 µM
MIC95 [30]: > 125 µM
IC50 (HeLa [31]): > 20 µM
MIC95 (Staphylococcus aureus): > 125 µM
MIC99 (Mycobacterium kansasii [32]): 0.125 µM (≈ 0.0511 µg/mL)
inhibition at 1 µg/mL [33]: 20%
Stability [34]: Stable
